Test results reported in ChEMBL document CHEMBL5543092, “Design, synthesis, and biological characterization of proteolysis targeting chimera (PROTACs) for the ataxia telangiectasia and RAD3-related (ATR) kinase” (Eur J Med Chem, 2024).
pIC50: −log10 of the molar value. Calls of active or inactive are those of the source. The rule behind the calls is not given here.

Key:
[1] = test system: HEK293; test: Cytotoxicity against human HEK293 cells assessed as cell viability at 50 uM incubated for 24 hrs by Alamar Blue reagent based assay relative to control; assay type: functional; conditions: read-out: Activity
[2] = target: T1, Protein cereblon/Serine/threonine-protein kinase ATR (Homo sapiens) (UniProt Q13535+Q96SW2); test: PROTAC activity at ATR/CRBN in patient derived human MIA PaCa-2 cells assessed as reduction in protein level at 0.1 to 5 uM measured after 24 hrs by immunoblot analysis relative to untreated control; assay type: cell-based; conditions: dose 0.1-5 µM
T1 sequence (Q13535 whole entry, looked up): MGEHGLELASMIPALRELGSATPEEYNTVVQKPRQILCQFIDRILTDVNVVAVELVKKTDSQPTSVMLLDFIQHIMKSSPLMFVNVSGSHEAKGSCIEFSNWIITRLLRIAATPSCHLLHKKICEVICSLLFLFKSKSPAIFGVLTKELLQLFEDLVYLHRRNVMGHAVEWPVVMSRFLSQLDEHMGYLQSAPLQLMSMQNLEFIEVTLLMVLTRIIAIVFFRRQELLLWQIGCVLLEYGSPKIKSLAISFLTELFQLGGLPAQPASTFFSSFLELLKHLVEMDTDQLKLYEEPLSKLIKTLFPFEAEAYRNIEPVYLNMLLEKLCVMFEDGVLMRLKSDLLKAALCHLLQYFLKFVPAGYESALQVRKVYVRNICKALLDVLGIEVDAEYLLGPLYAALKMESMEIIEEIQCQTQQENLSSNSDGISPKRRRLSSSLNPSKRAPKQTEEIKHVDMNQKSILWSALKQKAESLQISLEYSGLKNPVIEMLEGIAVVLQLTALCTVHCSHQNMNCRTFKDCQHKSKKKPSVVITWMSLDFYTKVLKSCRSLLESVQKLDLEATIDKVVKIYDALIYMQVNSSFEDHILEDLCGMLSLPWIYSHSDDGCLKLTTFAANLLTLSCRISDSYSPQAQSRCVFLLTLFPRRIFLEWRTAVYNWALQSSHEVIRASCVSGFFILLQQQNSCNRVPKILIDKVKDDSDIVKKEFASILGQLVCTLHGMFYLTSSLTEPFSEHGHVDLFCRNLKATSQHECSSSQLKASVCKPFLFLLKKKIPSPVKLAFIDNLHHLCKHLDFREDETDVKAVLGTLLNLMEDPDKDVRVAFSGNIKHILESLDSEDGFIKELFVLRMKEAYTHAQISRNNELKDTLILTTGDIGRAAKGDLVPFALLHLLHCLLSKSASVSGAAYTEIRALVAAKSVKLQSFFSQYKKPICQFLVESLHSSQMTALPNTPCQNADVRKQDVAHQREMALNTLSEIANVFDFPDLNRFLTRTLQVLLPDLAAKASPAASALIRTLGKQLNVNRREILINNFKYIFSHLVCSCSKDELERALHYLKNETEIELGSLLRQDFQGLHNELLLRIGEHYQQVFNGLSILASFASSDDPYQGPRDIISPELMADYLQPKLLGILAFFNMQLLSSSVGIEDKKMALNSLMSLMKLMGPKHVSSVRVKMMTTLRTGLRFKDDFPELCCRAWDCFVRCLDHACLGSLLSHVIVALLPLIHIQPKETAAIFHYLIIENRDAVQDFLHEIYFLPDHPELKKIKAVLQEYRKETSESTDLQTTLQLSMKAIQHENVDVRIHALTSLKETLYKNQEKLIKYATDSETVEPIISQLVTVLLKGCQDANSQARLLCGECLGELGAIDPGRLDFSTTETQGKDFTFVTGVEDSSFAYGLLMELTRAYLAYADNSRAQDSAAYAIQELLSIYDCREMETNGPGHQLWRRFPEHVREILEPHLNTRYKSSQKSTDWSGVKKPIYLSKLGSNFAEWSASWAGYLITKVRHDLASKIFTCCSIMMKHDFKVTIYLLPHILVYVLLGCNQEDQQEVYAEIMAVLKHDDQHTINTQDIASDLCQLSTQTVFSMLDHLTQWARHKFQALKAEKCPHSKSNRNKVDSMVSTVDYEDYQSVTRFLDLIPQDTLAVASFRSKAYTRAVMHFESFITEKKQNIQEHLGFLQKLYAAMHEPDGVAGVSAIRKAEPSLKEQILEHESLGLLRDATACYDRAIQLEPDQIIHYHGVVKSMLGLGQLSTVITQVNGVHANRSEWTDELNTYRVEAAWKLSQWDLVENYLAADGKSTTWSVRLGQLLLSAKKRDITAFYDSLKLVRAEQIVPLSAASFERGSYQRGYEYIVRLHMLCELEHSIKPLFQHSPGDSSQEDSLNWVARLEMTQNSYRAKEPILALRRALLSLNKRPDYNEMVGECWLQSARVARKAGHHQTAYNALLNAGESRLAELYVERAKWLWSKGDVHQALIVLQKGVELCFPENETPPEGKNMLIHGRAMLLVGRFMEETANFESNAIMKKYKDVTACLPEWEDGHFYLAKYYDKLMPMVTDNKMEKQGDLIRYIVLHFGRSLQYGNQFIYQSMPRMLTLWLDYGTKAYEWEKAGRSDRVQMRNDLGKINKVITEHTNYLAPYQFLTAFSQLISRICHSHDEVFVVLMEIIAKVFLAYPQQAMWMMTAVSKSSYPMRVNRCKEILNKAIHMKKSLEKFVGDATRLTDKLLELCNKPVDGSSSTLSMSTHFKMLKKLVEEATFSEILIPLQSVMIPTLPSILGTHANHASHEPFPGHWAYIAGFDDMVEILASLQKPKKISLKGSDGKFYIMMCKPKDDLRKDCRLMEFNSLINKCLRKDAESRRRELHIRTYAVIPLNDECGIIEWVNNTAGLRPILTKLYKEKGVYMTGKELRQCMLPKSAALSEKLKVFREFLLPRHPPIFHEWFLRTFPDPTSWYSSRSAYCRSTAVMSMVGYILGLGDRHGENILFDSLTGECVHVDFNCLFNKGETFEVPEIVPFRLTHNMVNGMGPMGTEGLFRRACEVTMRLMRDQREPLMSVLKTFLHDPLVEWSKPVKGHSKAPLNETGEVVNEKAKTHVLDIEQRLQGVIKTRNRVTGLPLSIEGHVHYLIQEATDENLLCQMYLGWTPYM
T1 sequence (Q96SW2 whole entry, looked up): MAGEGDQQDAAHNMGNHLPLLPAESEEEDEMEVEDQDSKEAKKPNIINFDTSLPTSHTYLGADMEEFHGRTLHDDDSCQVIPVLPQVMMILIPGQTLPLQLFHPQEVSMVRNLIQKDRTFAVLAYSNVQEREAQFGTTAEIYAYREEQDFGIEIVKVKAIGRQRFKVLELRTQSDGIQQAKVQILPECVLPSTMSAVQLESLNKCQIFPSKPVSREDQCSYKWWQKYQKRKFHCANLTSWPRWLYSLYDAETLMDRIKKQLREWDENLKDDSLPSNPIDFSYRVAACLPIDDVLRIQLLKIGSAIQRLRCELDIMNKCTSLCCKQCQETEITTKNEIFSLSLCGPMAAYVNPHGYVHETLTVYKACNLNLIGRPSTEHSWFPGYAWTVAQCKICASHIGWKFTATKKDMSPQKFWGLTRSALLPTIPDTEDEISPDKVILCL

[3] = Chemical stability of the compound in at pH 7.4 measured at 72 hrs by HPLC based non-enzymatic stability assay; assay type: physicochemical; conditions: buffer, read-out: Stability
[4] = Chemical stability of the compound in at pH 7.4 measured at 12 hrs by HPLC based non-enzymatic stability assay; assay type: physicochemical; conditions: buffer, read-out: Stability
[5] = Chemical stability of the compound in at pH 7.4 measured at 48 hrs by HPLC based non-enzymatic stability assay; assay type: physicochemical; conditions: buffer, read-out: Stability
[6] = Chemical stability of the compound in at pH 7.4 measured at 6 hrs by HPLC based non-enzymatic stability assay; assay type: physicochemical; conditions: buffer, read-out: Stability
[7] = Chemical stability of the compound in at pH 7.4 measured at 24 hrs by HPLC based non-enzymatic stability assay; assay type: physicochemical; conditions: buffer, read-out: Stability
[8] = target: T2, von Hippel-Lindau disease tumor suppressor/Serine/threonine-protein kinase ATR (Homo sapiens) (UniProt Q13535+P40337); test: PROTAC activity at ATR/VHL in patient derived human MIA PaCa-2 cells assessed as protein degradation at 5 uM measured after 24 hrs by immunoblot analysis relative to untreated control; assay type: cell-based
T2 sequence (P40337 whole entry, looked up): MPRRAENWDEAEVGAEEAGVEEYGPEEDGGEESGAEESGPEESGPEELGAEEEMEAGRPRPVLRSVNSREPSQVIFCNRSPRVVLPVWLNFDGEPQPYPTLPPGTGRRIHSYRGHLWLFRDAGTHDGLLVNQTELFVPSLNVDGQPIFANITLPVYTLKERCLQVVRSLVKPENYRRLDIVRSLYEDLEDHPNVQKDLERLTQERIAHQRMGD
T2 sequence (Q13535 whole entry, looked up): as the sequence (Q13535 whole entry, looked up) above

[9] = target: T2, von Hippel-Lindau disease tumor suppressor/Serine/threonine-protein kinase ATR (Homo sapiens); test: PROTAC activity at ATR/VHL in patient derived human MIA PaCa-2 cells assessed as protein degradation at 2 uM measured after 24 hrs by immunoblot analysis relative to untreated control; assay type: cell-based
[10] = Plasma protein binding in human plasma; assay type: ADME, cell-free; conditions: read-out: PPB (converted)
[11] = Plasma stability in human plasma assessed as compound remaining at 20 uM measured after 24 hrs by HPLC analysis; assay type: ADME, cell-free; conditions: read-out: Stability
[12] = target: ATR/ATRIP (Homo sapiens, UniProt Q13535); test: Inhibition of human ATR/ATRIP complex using GST-cMyc-p53 substrate measured after 30 mins by HTRF based non-radioactive in vitro assay; assay type: protein-complex assay
ATR/ATRIP, sequence (Q13535 whole entry): as the sequence (Q13535 whole entry, looked up) above
ATR/ATRIP, sequence (Q8WXE1 whole entry, further chain): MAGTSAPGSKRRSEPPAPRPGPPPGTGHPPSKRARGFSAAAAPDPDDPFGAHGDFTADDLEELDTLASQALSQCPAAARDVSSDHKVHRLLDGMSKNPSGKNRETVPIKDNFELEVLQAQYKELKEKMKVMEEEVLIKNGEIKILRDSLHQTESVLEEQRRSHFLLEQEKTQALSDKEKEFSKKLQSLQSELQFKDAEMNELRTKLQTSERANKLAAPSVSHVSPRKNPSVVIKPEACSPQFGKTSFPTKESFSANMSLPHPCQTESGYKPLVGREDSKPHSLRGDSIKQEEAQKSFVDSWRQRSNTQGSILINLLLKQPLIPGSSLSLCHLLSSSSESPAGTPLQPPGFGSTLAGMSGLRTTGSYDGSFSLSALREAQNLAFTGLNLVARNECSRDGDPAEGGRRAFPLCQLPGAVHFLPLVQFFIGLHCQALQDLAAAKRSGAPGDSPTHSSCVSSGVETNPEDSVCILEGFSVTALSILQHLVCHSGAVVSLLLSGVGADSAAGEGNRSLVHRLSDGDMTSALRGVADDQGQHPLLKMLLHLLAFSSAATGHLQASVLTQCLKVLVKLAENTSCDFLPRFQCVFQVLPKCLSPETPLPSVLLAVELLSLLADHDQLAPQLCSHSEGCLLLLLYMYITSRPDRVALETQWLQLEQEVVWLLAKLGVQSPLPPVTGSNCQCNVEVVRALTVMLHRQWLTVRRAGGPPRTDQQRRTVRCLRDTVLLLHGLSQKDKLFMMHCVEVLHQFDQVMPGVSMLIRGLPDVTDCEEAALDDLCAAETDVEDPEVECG

[13] = test system: MIA PaCa-2; test: Induction of […] degradation in patient derived human MIA PaCa-2 cells assessed as reduction in protein level at 2 uM measured after 24 hrs by immunoblot analysis; assay type: functional, cell-based
[14] = target: T1, Protein cereblon/Serine/threonine-protein kinase ATR (Homo sapiens); test: PROTAC activity at ATR/CRBN in patient derived human MIA PaCa-2 cells assessed as reduction in protein level at 2 uM measured after 24 hrs by immunoblot analysis relative to untreated control; assay type: cell-based; set-up: scale not given: the % may be the effect or the level left
[15] = target: T1, Protein cereblon/Serine/threonine-protein kinase ATR (Homo sapiens); test: PROTAC activity at ATR/CRBN in patient derived human MIA PaCa-2 cells assessed as reduction in protein level at 1 uM measured after 24 hrs by immunoblot analysis relative to untreated control; assay type: cell-based
[16] = target: T1, Protein cereblon/Serine/threonine-protein kinase ATR (Homo sapiens); test: PROTAC activity at ATR/CRBN in patient derived human MIA PaCa-2 cells assessed as reduction in protein level at 5 uM measured after 24 hrs by immunoblot analysis relative to untreated control; assay type: cell-based; set-up: scale not given: the % may be the effect or the level left

SMILES	viability at 50 µM [1] [%]	Activity [2]	remaining at 72 h [3] [%]	remaining at 12 h [4] [%]	remaining at 48 h [5] [%]	remaining at 6 h [6] [%]	remaining at 24 h [7] [%]	Activity [8]	Activity [9]	fraction unbound [10]	remaining at 24 h, 20 µM [11] [%]	pIC50 [12]	Activity [13]	Activity [14]	Activity [15]	Activity [16] [%]
Nc1ncc(-c2ccc(S(=O)(=O)NCCCCCC(=O)N3CCN(c4ccc5c(c4)C(=O)N(C4CCC(=O)NC4=O)C5=O)CC3)cc2)nc1-c1nnc(-c2ccccc2)o1 (configuration not stated)	85.6	inactive	73	92	80	96	90									
Cc1ncsc1-c1ccc(CNC(=O)[C@@H]2C[C@@H](O)CN2C(=O)[C@@H](NC(=O)CCCCCNS(=O)(=O)c2ccc(-c3cnc(N)c(C(=O)Nc4ccccc4)n3)cc2)C(C)(C)C)cc1	60.3		100	99	100	99	100	inactive	inactive							
CNS(=O)(=O)c1ccc(-c2cnc(N)c(C(=O)Nc3ccccc3)n2)cc1	83.7		104	100	102	99	100			0.225	> 92	6.00				
Nc1ncc(-c2ccc(S(=O)(=O)NCCCCC(=O)NCCOc3ccc(C4CCC(=O)NC4=O)cc3)cc2)nc1C(=O)Nc1ccccc1 (configuration not stated)	66.4	inactive	99	101	99	101	101									
CS(=O)(=O)c1ccc(-c2cnc(N)c(C(=O)Nc3ccccc3)n2)cc1													inactive			
Nc1ncc(-c2ccc(S(=O)(=O)NCCCCCC(=O)NCC#Cc3cccc4c3CN(C3CCC(=O)NC3=O)C4=O)cc2)nc1-c1nnc(-c2ccccc2)o1 (configuration not stated)	70.5		106	105	106	108	105							40%		
Nc1ncc(-c2ccc(S(=O)(=O)NCCCCCCC(=O)NCCCC#Cc3cccc4c3CN(C3CCC(=O)NC3=O)C4=O)cc2)nc1C(=O)Nc1ccccc1 (configuration not stated)	109		109	103	105	102	105								Active	
CN1C(=O)CCC(N2Cc3c(C#CCCCNC(=O)CCCCCNS(=O)(=O)c4ccc(-c5cnc(N)c(C(=O)Nc6ccccc6)n5)cc4)cccc3C2=O)C1=O (configuration not stated)	83.5		97	100	98	100	99							inactive		
Nc1ncc(-c2ccc(S(=O)(=O)NCCCCCCCC(=O)NCCOc3ccc(C4CCC(=O)NC4=O)cc3)cc2)nc1C(=O)Nc1ccccc1 (configuration not stated)	62.9	inactive	100	99	100	100	100									
Nc1ncc(-c2ccc(S(=O)(=O)NCCCCCC(=O)N3CCN(c4cccc(C(=O)NC5CCC(=O)NC5=O)n4)CC3)cc2)nc1C(=O)Nc1ccccc1 (configuration not stated)	86.5	inactive	65	104	82	102	97									
Nc1ncc(-c2ccc(S(=O)(=O)NCCCCCCCC(=O)N3CCN(c4ccc5c(c4)C(=O)N(C4CCC(=O)NC4=O)C5=O)CC3)cc2)nc1C(=O)Nc1ccccc1 (configuration not stated)	90.5		84	105	94	98	108							inactive		
Cc1ncsc1-c1ccc(CNC(=O)[C@@H]2C[C@@H](O)CN2C(=O)[C@@H](NC(=O)CCOCCOCCNS(=O)(=O)c2ccc(-c3cnc(N)c(C(=O)Nc4ccccc4)n3)cc2)C(C)(C)C)cc1	44.5		102	100	101	100	101	inactive	inactive							
Nc1ncc(-c2ccc(S(=O)(=O)NCCCCC(=O)NCC#Cc3cccc4c3CN(C3CCC(=O)NC3=O)C4=O)cc2)nc1-c1nnc(-c2ccccc2)o1 (configuration not stated)	95.5		107	105	103	104	105							inactive		
CNCc1ccc(-c2nnc(-c3nc(-c4ccc(S(=O)(=O)NCCCCC(=O)NCCCC#Cc5cccc6c5CN(C5CCC(=O)NC5=O)C6=O)cc4)cnc3N)o2)cc1 (configuration not stated)	107		100	101	100	101	102							40%		
Cc1ncsc1-c1ccc(CNC(=O)[C@@H]2C[C@@H](O)CN2C(=O)[C@@H](NC(=O)CCOCCOCCOCCNS(=O)(=O)c2ccc(-c3cnc(N)c(C(=O)Nc4ccccc4)n3)cc2)C(C)(C)C)cc1	45.7		105	100	103	100	102	inactive	inactive							
CNCc1ccc(-c2nnc(-c3nc(-c4ccc(S(=O)(=O)NCCCCCC(=O)N5CCN(c6ccc7c(c6)C(=O)N(C6CCC(=O)NC6=O)C7=O)CC5)cc4)cnc3N)o2)cc1 (configuration not stated)	105	inactive	71	95	81	98	92									
Nc1ncc(-c2ccc(S(=O)(=O)NCCCCCCC(=O)NCCOc3ccc(C4CCC(=O)NC4=O)cc3)cc2)nc1C(=O)Nc1ccccc1 (configuration not stated)	95.7	inactive	101	103	102	101	102									
Nc1ncc(-c2ccc(S(=O)(=O)NCCCCCC(=O)NCC#Cc3cccc4c3CN(C3CCC(=O)NC3=O)C4=O)cc2)nc1C(=O)Nc1ccccc1 (configuration not stated)	86.4		109	103	105	101	104							Active		
Nc1ncc(-c2ccc(S(=O)(=O)NCCCCCC(=O)N3CCN(c4ccc5c(c4)C(=O)N(C4CCC(=O)NC4=O)C5=O)CC3)cc2)nc1C(=O)Nc1ccccc1 (configuration not stated)	96		72	101	87	101	96									40
